Measured values taken from patent US20090305993A1, “METHODS AND COMPOSITION FOR THE TREATMENT OF GASTROINTESTINAL DISORDERS” (IRONWOOD PHARMACEUTICALS, INC., priority 2006, published 2009).
Where a SMILES comes first, the peptide text is derived from it. Bridges are numbered along the chain shown (N, C = ends).

Tests used:
[1] = bioavailability study in mice, LCMS detection; type: in vivo; conditions: CD1, mouse, serum, IV and oral, FIG. 10b, read-out: bioavailable
Method: A similar bioavailability study was performed in which LCMS rather than ELISA was used to detect SEQ ID NO:3. Initially, serum samples were extracted from the whole blood of exposed and control mice, then injected directly ([…]) onto an in-line solid phase extraction (SPE) column (Waters Oasis HLB 25 μm column, 2.0×15 mm direct connect) without further processing. The sample on the SPE column was washed with a 5% methanol, 95% dH2O solution (2.1 mL/min, 1.0 minute), then loaded onto an analytical column using a valve switch that places the SPE column in an inverted flow path onto the analytical column (Waters Xterra MS C8 5 μm IS column, 2.1×20 mm). The sample was eluted from the analytical column with a reverse phase gradient (Mobile Phase A: 10 mM ammonium hydroxide in dH2O, Mobile Phase B: 10 mM ammonium hydroxide in 80% acetonitrile and 20% methanol; 20% B for the first 3 minutes then ramping to 95% B over 4 min. and holding for 2 min., all at a flow rate of 0.4 mL/min.). At 9.1 minutes, the gradient returns to the initial conditions of 20% B for 1 min. SEQ ID NO:3 eluted from the analytical column at 1.45 minutes, and was detected by triple-quadrapole mass spectrometry (MRM, 764 (+2 charge state)>182 (+1 charge state) Da; cone voltage=30V; collision=20 eV; parent resolution=2 Da at base peak; daughter resolution=2 Da at base peak). […]

pepsin = pepsin (Sus scrofa, UniProt P00791); conditions: pH 2.0, 37° C., up to 3 h
Method: Samples were collected at 0, 3, and 24 h for all conditions except pepsin digestion and the SGF. For the latter two conditions, samples were obtained at 0, 1, and 3 h. Negative control samples were prepared for initial and final time points. […] All samples were analyzed by LC/MS
500 μL samples of 100 U/mL pepsin (Pepsin porcine gastric mucosa; Sigma-Aldrich, P68871; U=release of 0.01 absorbance at 280 nm (A280) as TCA soluble hydrolysis products per min at 37° C. of hemoglobin) were prepared in the pepsin reaction buffer (100 mM HCl-KCl, pH 2.0) in 5 mL polystyrene round bottom tubes. To the control samples (0 and 24 h), 500 μL of a 1 M ammonium acetate (pepsin inhibitor) stock were added, for a final concentration of 0.5 M. All control and test samples (0, 1, and 3 h) were incubated at 37° C. for 5 min, while shaking. […] Samples were returned to the 37° C. shaking water bath. Reactions were quenched by the addition of 500 μL of 1 M ammonium acetate for a final concentration of 0.5 M (except to the control samples, which already contained 0.5 M ammonium acetate). Samples were cooled on ice and stored at 4° C. until analysis. Upon analysis, samples were transferred to a 1 mL 96-well plate. […] These standards were used to generate a standard curve for quantification of samples. Ten (10) μL injections were made of each sample and standard.

WT and GC-C KO mice [2] = assay: colorectal distension under basal conditions in WT and GC-C KO mice; type: in vivo, mouse; conditions: oral 0.01 and 0.3 μg/kg
Method: (§1) TNBS induced visceral hypersensitivity was assessed in WT and GC-C KO mice. Two groups (WT and GC-C KO) of male mice (22-25 g) were surgically prepared for electromyographic (EMG) recordings. Three electrodes were implanted in the striated muscles of the abdomen for EMG recording of abdominal contractions. Colorectal distension (CRD) was performed with a balloon inflated by 10s steps of 0.02 ml from 0 to 0.12 ml. Under basal conditions mice were submitted to control CRD (time 0) followed by oral administration of SEQ ID NO:3 (0.01 and 0.3 μg/kg) or vehicle only (distilled water, 1 ml) at 3 hours. One hour post dosing the CRD procedure was repeated. Abdominal EMG contractile response to colorectal distension in basal conditions in both WT and GC-C KO mice (12-14 mice per group) was determined in the absence of vehicle and SEQ ID NO:3, and the mean+/−standard error of the mean (SEM) is graphically depicted in FIG. 7c.

adult male Wistar rats = assay: water avoidance stress-induced visceral hyperalgesia model; type: in vivo, rat; conditions: oral 3 μg/kg, FIG. 7f
Method: The effect of SEQ ID NO:3 on basal visceral nociception in a model of water avoidance stress-induced visceral hyperalgesia in adult male Wistar rats was tested. The stress involved confining rats to a platform surrounded by water for a period of 1 hour and then measuring their visceromotor response to colonic distension using electromyography (EMG).
Electrode leads were then tunneled subcutaneously and externalized laterally for future access. Following surgery, rats were housed in pairs and allowed to recover for at least 7 days. On the day of the experiment, animals were lightly anesthetized with halothane, and a lubricated latex balloon (6 cm) was inserted intra-anally into the descending colon. Animals were allowed to recover for 30 minutes, and colorectal distension (CRD) was initiated. The CRD procedure consisted of graded intensities of phasic CRD (10, 20, 40, 60 mmHg; 20 s duration; 4 min inter-stimulus interval). Visceromotor response (VMR) to CRD was quantified by measuring EMG activity. […] Animals were allowed 1 hour recovery and then SEQ ID NO:3 or vehicle was orally administered. At 1 hour following administration of SEQ ID NO:3 or vehicle CRD was repeated. […]
To determine the effect of SEQ ID NO:3 in a model of water avoidance stress-induced visceral hyperalgesia, a baseline CRD was recorded and then the animals were subjected to 1 hour of water avoidance stress. […]

WT and GC-C KO mice [3] = assay: TNBS visceral hypersensitivity model in WT and GC-C KO mice; type: in vivo, mouse; conditions: oral 0.01 μg/kg, FIG. 7d
Method: as §1
For TNBS induced visceral hypersensitivity conditions, mice were submitted to control CRD (time 0) and TNBS (20 mg/kg) was administered at 3 days. […] The effect of SEQ ID NO:3 ([…]) on abdominal response to colorectal distension after TNBS in WT and GC-C KO mice (12-14 per group) at a volume distension of […] was determined and the mean+/−standard error of the mean (SEM) is graphically depicted in FIG. 7d.

suckling mice = assay: suckling mouse model of intestinal secretion (SuMi assay); type: in vivo; conditions: dose response, FIG. 5a, 5b
Method: In this model a test compound is administered to suckling mice that are between 7 and 9 days old. After the mice are sacrificed, the gastrointestinal tract from the stomach to the cecum is dissected (“guts”). The remains (“carcass”) as well as the guts are weighed and the ratio of guts to carcass weight is calculated. If the ratio is above 0.09, one can conclude that the test compound increases intestinal secretion. […] The effect of Zelnorm® was also studied.

pepsin, sequence (P00791 60-385): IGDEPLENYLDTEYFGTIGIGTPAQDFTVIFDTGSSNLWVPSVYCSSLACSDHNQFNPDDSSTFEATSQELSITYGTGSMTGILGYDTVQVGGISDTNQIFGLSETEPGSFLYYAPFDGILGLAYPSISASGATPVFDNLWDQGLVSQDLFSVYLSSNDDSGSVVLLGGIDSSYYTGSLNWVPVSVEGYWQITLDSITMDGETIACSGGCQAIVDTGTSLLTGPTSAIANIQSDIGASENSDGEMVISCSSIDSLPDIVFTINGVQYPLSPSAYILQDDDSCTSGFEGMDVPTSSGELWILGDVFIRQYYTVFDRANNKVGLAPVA

C[C@@H]1NC(=O)[C@@H]2CCCN2C(=O)[C@H](CC(N)=O)NC(=O)[C@@H]2CSSC[C@H](N)C(=O)N[C@H]3CSSC[C@H](NC1=O)C(=O)N[C@@H]([C@@H](C)O)C(=O)NCC(=O)N[C@H](C(=O)N[C@@H](Cc1ccc(O)cc1)C(=O)O)CSSC[C@H](NC(=O)[C@H](Cc1ccc(O)cc1)NC(=O)[C@H](CCC(=O)O)NC3=O)C(=O)N2 [SEQ ID NO:3] (H-CCEYCCNPACTGCY-OH; disulfide 1-6, 2-10, 5-13; N-terminus and C-terminus assumed)
bioavailability [1]: < 0.11%
Cleavage of SEQ ID NO: 3 by proteolytic substance (pepsin): not detectable
EMG response to colorectal distension (WT and GC-C KO mice [2]): decreased the EMG response to colorectal distension
visceromotor response to CRD 24 hours after water avoidance stress (adult male Wistar rats): exhibited anti-hyperalgesic properties
TNBS induced hypersensitivity to CRD (WT and GC-C KO mice [3]; GC-C KO mice): A similar effect was not observed
TNBS induced hypersensitivity to CRD (WT and GC-C KO mice [3]; WT mice): reduces the TNBS induced hypersensitivity to CRD
intestinal secretion (ratio of guts to carcass weight) (suckling mice): increase intestinal secretion
